The values that follow come from US20020028938A1, “Prostaglandin endoperoxide H synthase biosynthesis inhibitors” (priority 1997, published 2002).

In the case of `CSc1ccc(-c2cnn(-c3ccc(F)cc3)c(=O)c2OC(C)C)cc1` [Example 199, 2-(4-Fluorophenyl)-4-(2-propoxy)-5-[4-(methylthio)phenyl]-3(2H)-pyridazinone], the melting point (in general, the temperature of the solid-liquid transition) fell in the range of 135 to 137 °C. In the case of `CC(C)Oc1c(-c2ccc(S(C)(=O)=O)cc2)cnn(-c2ccc(F)cc2)c1=O` [Example 200, 2-(4-Fluorophenyl)-4-(2-propoxy)-5-[4-(methylsulfonyl)phenyl]-3(2H)-pyridazinone], the melting point was in the range of 160 to 162 °C.

With `CC(C)Oc1c(-c2ccc(S(C)(=O)=O)cc2)cnn(-c2cccc(Cl)c2)c1=O` [Example 201, 2-(3-Chlorophenyl)-4-(2-propoxy)-5-[4-(methylsulfonyl)phenyl]-3(2H)-pyridazinone], the melting point is 134 to 136 °C. `CC(C)Oc1c(-c2ccc(S(C)(=O)=O)cc2)cnn(-c2cccc(F)c2)c1=O` [Example 202, 2-(3-Fluorophenyl)-4-(2-propoxy)-5-[4-(methylsulfonyl)phenyl]-3(2H)-pyridazinone] came in with a melting point of 110 to 112 °C. Regarding `CC(C)Oc1c(-c2ccc(S(C)(=O)=O)cc2)cnn(-c2cc(F)ccc2F)c1=O` [Example 204, 2-(2,5-Difluorophenyl)-4-(2-propoxy)-5-[4-(methylsulfonyl)phenyl]-3(2H)-pyridazinone], the melting point lay in the range of 161 to 164 °C. Turning to `CS(=O)(=O)c1ccc(-c2cnn(-c3cccc(Cl)c3)c(=O)c2COC(=O)c2ccccc2)cc1` [Example 208, 2-(3-Chlorophenyl)-4-(benzoyloxymethyl)-5-[4-(methylsulfonyl)phenyl]-3(2H)-pyridazinone], the melting point was in the range of 50 to 70 °C. `CS(=O)(=O)c1ccc(-c2cnn(CC(F)(F)F)c(=O)c2-c2ccc3c(c2)COC3=O)cc1` [Example 221, 2-(2,2,2-Trifluoroethyl)-4-(1-oxo-1,3-dihydro-2-benzofuran-5-yl)-5-[4-(methylsulfonyl)phenyl]-3(2H)-pyridazinone] yielded a melting point of 237 to 239 °C.

`C=CCc1c(-c2ccc(S(C)(=O)=O)cc2)cnn(CC(F)(F)F)c1=O` [Example 222, 2-(2,2,2-Trifluoroethyl)-4-(2-propenyl)-5-[4-(methylsulfonyl)phenyl]-3(2H)-pyridazinone]: the melting point was in the range of 192 to 195 °C. `CC=C(C)c1c(-c2ccc(S(C)(=O)=O)cc2)cnn(CC(F)(F)F)c1=O` [Example 223, 2-(2,2,2-Trifluoroethyl)-4-(2-buten-2-yl)-5-[4-(methylsulfonyl)phenyl]-3(2H)-pyridazinone]: the melting point was 175 to 180 °C. The compound `Cc1ccc(-c2c(-c3ccc(S(C)(=O)=O)cc3)cnn(-c3ccc(F)cc3)c2=O)cc1` [Example 229, 2-(4-Fluorophenyl)-4-(4-methylphenyl)-5-[4-(methylsulfonyl)-phenyl]-3(2H)-pyridazinone] had a melting point of 242 to 244 °C.

Consider `CS(=O)(=O)c1ccc(-c2cnn(-c3ccc(F)c(F)c3)c(=O)c2Cc2ccccc2)cc1` [Example 233, 2-(3,4-Difluorophenyl)-4-benzyl-5-[4-(methylsulfonyl)phenyl]-3(2H)-pyridazinone], for which the melting point was 166 to 168 °C. Regarding `CC#Cc1c(-c2ccc(S(C)(=O)=O)cc2)cnn(-c2ccc(F)c(F)c2)c1=O` [Example 238, 2-(3,4-Difluorophenyl)-4-(1-propynyl)-5-[4-(methylsulfonyl)phenyl]-3(2H)-pyridazinone], the melting point was in the range of 149 to 150 °C. With `Cc1ccc(-c2c(-c3ccc(S(C)(=O)=O)cc3)cnn(-c3ccc(F)cc3)c2=O)cc1F` [Example 250, 2-(4-Fluorophenyl)-4-(3-fluoro-4-methylphenyl)-5-[4-(methylsulfonyl)phenyl]-3(2H)-pyridazinone] the figure was 245 to 248 °C; with `CS(=O)(=O)c1ccc(-c2cnn(-c3ccc(F)c(F)c3)c(=O)c2Cc2ccc(F)c(F)c2)cc1` [Example 255, 2-(3,4-Difluorophenyl)-4-(3,4-difluorobenzyl)-5-[4-(methylsulfonyl)phenyl]-3(2H)-pyridazinone], 177 to 179 °C. With `CC(C)CCc1c(-c2ccc(S(C)(=O)=O)c(F)c2)cnn(-c2ccc(F)c(F)c2)c1=O` [Example 258, 2-(3,4-Difluorophenyl)-4-(3-methylbutyl)-5-[3-fluoro-4-(methylsulfonyl)phenyl]-3(2H)-pyridazinone] the figure was 119 to 121 °C. The compound `CSc1cc(-n2ncc(-c3ccc(S(C)(=O)=O)cc3)c(-c3ccc(F)cc3)c2=O)ccc1F` [Example 259, 2-[4-Fluoro-3-(methylthio)phenyl]-4-(4-fluorophenyl)-5-[4-(methylsulfonyl)phenyl]-3(2H)-pyridazinone] displayed a melting point of 105 to 107 °C. As for `CS(=O)(=O)c1ccc(-c2cnn(CC(F)(F)F)c(=O)c2Oc2ccc(C#N)cc2)cc1` [Example 264, 2-(2,2,2-Trifluoroethyl)-4-(4-cyanophenoxy)-5-[4-(methylsulfonyl)phenyl]-3(2H)-pyridazinone], the melting point was in the range of 179 to 181 °C. With `CS(=O)(=O)c1ccc(-c2cnn(CC(F)(F)F)c(=O)c2Oc2ccc(-c3ccccc3)cc2)cc1` [Example 268, 2-(2,2,2-Trifluoroethyl)-4-(4-phenylphenoxy)-5-[4-(methylsulfonyl)phenyl]-3(2H)-pyridazinone], the melting point was in the range of 163 to 165 °C. Compound `CS(=O)(=O)c1ccc(-c2cnn(CC(F)(F)F)c(=O)c2OCc2ccccc2)cc1` [Example 270, 2-(2,2,2-Trifluoroethyl)-4-(phenylmethoxy)-5-[4-(methylsulfonyl)phenyl]-3(2H)-pyridazinone] had a melting point of 121 to 123 °C. Compound `CS(=O)(=O)c1ccc(-c2cnn(CC(F)(F)F)c(=O)c2OC2CCc3ccccc32)cc1` (stereo not shown) [Example 276, 2-(2,2,2-Trifluoroethyl)-4-(1-indanyloxy)-5-[4-(methylsulfonyl)phenyl]-3(2H)-pyridazinone] returned a melting point of 113 to 114 °C. `CC(C)(C)CCOc1c(-c2ccc(S(C)(=O)=O)cc2)cnn(CC(F)(F)F)c1=O` [Example 280, 2-(2,2,2-Trifluoroethyl)-4-(3,3-dimethylbutoxy)-5-[4-(methylsulfonyl)phenyl]-3(2H)-pyridazinone] registered a melting point of 83 to 85 °C. In turn, `CS(=O)(=O)c1ccc(-c2cnn(-c3ccc(F)c(F)c3)c(=O)c2Oc2ccc(Br)cc2)cc1` [Example 282, 2-(3,4-Difluorophenyl)-4-(4-bromophenoxy)-5-[4-(methylsulfonyl)phenyl]-3(2H)-pyridazinone] came in with a melting point of 196 to 199 °C. Consider `CS(=O)(=O)c1ccc(-c2cnn(CC(F)(F)F)c(=O)c2SCc2ccccc2)cc1` [Example 285, 2-(2,2,2-Trifluoroethyl)-4-phenylmethylthio-5-[4-(methylsulfonyl)phenyl]-3(2H)-pyridazinone], for which the melting point fell in the range of 108 to 111 °C. Take `CC(C)(C)Sc1c(-c2ccc(S(C)(=O)=O)cc2)cnn(CC(F)(F)F)c1=O` [Example 290, 2-(2,2,2-Trifluoroethyl)-4-(tert-butylthio)-5-[4-(methylsulfonyl)phenyl]-3(2H)-pyridazinone]: the melting point was in the range of 186 to 189 °C. In the case of `CS(=O)(=O)c1ccc(-c2cnn(CC(F)(F)F)c(=O)c2N)cc1` [Example 294, 2-(2,2,2-Trifluoroethyl)-4-amino-5-[4-(methylsulfonyl)phenyl]-3(2H)-pyridazinone], the melting point was over 260 °C. Take `COCCCNc1c(-c2ccc(S(C)(=O)=O)cc2)cnn(CC(F)(F)F)c1=O` [Example 295, 2-(2,2,2-Trifluoroethyl)-4-(3-methoxylpropylamino)-5-[4-(methylsulfonyl)phenyl]-3(2H)-pyridazinone]: the melting point was 110 to 113 °C. To `CS(=O)(=O)c1ccc(-c2cnn(CC(F)(F)F)c(=O)c2NC2CCCC2)cc1` [Example 296, 2-(2,2,2-Trifluoroethyl)-4-(cyclopentylamino)-5-[4-(methylsulfonyl)phenyl]-3(2H)-pyridazinone] belongs 134 to 139 °C; to `COc1ccc(CCNc2c(-c3ccc(S(C)(=O)=O)cc3)cnn(CC(F)(F)F)c2=O)cc1OC` [Example 298, 2-(2,2,2-Trifluoroethyl)-4-(3,4-dimethoxyphenethylamino)-5-[4-(methylsulfonyl)phenyl]-3(2H)-pyridazinone], 163 to 165 °C. `CS(=O)(=O)c1ccc(-c2cnn(CC(F)(F)F)c(=O)c2NCC2CC2)cc1` [Example 302, 2-(2,2,2-Trifluoroethyl)-4-(cyclopropylmethylamino)-5-[4-(methylsulfonyl)phenyl]-3(2H)-pyridazinone]: the melting point was in the range of 145 to 146 °C. Regarding `CS(=O)(=O)c1ccc(-c2cnn(CC(F)(F)F)c(=O)c2NC2CCc3ccccc32)cc1` (stereo not shown) [Example 303, 2-(2,2,2-Trifluoroethyl)-4-(2,3-dihydro-1H-inden-1-ylamino)-5-[4-(methylsulfonyl)phenyl]-3(2H)-pyridazinone], the melting point was 155 to 158 °C. `CS(=O)(=O)c1ccc(-c2cnn(CC(F)(F)F)c(=O)c2N2CCCCC2)cc1` [Example 304, 2-(2,2,2-Trifluoroethyl)-4-(1-piperidinyl)-5-[4-(methylsulfonyl)phenyl]-3(2H)-pyridazinone] gave a melting point of 160 to 161 °C.

`CS(=O)(=O)c1ccc(-c2cnn(CC(F)(F)F)c(=O)c2NCCCO)cc1` [Example 305, 2-(2,2,2-Trifluoroethyl)-4-(3-hydroxypropylamino)-5-[4-(methylsulfonyl)phenyl]-3(2H)-pyridazinone] had a melting point of 152 to 154 °C.

The compound `C[C@@H](O)CNc1c(-c2ccc(S(C)(=O)=O)cc2)cnn(CC(F)(F)F)c1=O` [Example 307, 2-(2,2,2-Trifluoroethyl)-4-(2R-hydroxylpropylamino)-5-[4-(methylsulfonyl)phenyl]3(2H)-pyridazinone] yielded a melting point of 140 to 142 °C.

`CS(=O)(=O)c1ccc(-c2cnn(CC(F)(F)F)c(=O)c2NCCC#N)cc1` [Example 308, 2-(2,2,2-Trifluoroethyl)-4-(2-cyanoethylamino)-5-[4-(methylsulfonyl)phenyl]-3(2H)-pyridazinone] showed a melting point of 172 to 174 °C.
